Test results reported in patent US9695155B2, “Herbicidal substituted pyrimidinyloxy benzene compounds” (E. I. DU PONT DE NEMOURS AND COMPANY, priority 2013, dated 2017).

Legend:
barnyardgrass [1] = assay: Test A postemergence; type: in vivo, Echinochloa crus-galli
In short: (§1)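 Injury scores run from 0, no effect, to 100, complete control, judged by eye against untreated plants roughly 10 days after treatment. Chemicals carried a surfactant in a non-phytotoxic solvent and went onto loam–sand soil preemergence or onto one- to two-leaf seedlings postemergence.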

barnyardgrass [2] = assay: Test B flooded paddy test; type: in vivo, Echinochloa crus-galli; settings: Flood, 250 g ai/ha; 0 to 100 scale where 0 is no effect and 100 is complete control
In short: (§2)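 Flooded to 3 cm at the 2-leaf stage, pots received compound through the paddy water and were kept at that depth under greenhouse conditions. After 13–15 days, effect was rated by eye relative to controls, 0 = none and 100 = complete control.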

ducksalad = assay: Test C flooded paddy test; type: in vivo, Heteranthera limosa; settings: Flood, scale 0 to 100 (0 no effect, 100 complete control), 13 to 15 days
Description: (§3) At time of treatment, test pots were flooded to 3 cm above the soil surface, treated by application of test compounds directly to the paddy water, and then maintained at that water depth for the duration of the test. Treated plants and controls were maintained in a greenhouse for 13 to 15 days, after which time all species were compared to controls and visually evaluated. […] A dash (-) response means no test result.

sedge, umbrella [3] = assay: Test B flooded paddy test; type: in vivo, Cyperus difformis; settings: Flood, 250 g ai/ha; 0 to 100 scale where 0 is no effect and 100 is complete control
In short: as §2

giant foxtail [4] = assay: Test A postemergence; type: in vivo, Setaria faberii
In short: as §1

sedge, umbrella [5] = assay: Test C flooded paddy test; type: in vivo, Cyperus difformis; settings: Flood, scale 0 to 100 (0 no effect, 100 complete control), 13 to 15 days
Description: as §3

pigweed [6] = assay: Test A preemergence; type: in vivo, Amaranthus retroflexus; settings: for Pigweed plant response rating: 500 g ai/ha
In short: as §1

corn [7] = assay: Test A postemergence; type: in vivo, Zea mays
In short: as §1

corn [8] = assay: Test A preemergence; type: in vivo, Zea mays; settings: for Corn plant response rating: 500 g ai/ha
In short: as §1

velvetleaf [9] = assay: Test A preemergence; type: in vivo, Abutilon theophrasti; settings: for Velvetleaf plant response rating: 500 g ai/ha
In short: as §1

barnyardgrass [10] = assay: Test A preemergence; type: in vivo, Echinochloa crus-galli; settings: for Barnyardgrass plant response rating: 500 g ai/ha
In short: as §1

pigweed [11] = assay: Test A postemergence; type: in vivo, Amaranthus retroflexus
In short: as §1

wheat [12] = assay: Test A postemergence; type: in vivo, Triticum aestivum
In short: as §1

velvetleaf [13] = assay: Test A postemergence; type: in vivo, Abutilon theophrasti
In short: as §1

morningglory [14] = assay: Test A preemergence; type: in vivo, Ipomoea spp.
In short: as §1

giant foxtail [15] = assay: Test A preemergence; type: in vivo, Setaria faberii; settings: for Foxtail, Giant plant response rating: 500 g ai/ha
In short: as §1

rice [16] = assay: Test C flooded paddy test; type: in vivo, Oryza sativa; settings: Flood, scale 0 to 100 (0 no effect, 100 complete control), 13 to 15 days
Description: as §3

large (Lg) crabgrass [17] = assay: Test A postemergence; type: in vivo, Digitaria sanguinalis
In short: as §1

large (Lg) crabgrass [18] = assay: Test A preemergence; type: in vivo, Digitaria sanguinalis; settings: for Crabgrass, Large plant response rating: 500 g ai/ha
In short: as §1

rice [19] = assay: Test B flooded paddy test; type: in vivo, Oryza sativa; settings: Flood, 250 g ai/ha; 0 to 100 scale where 0 is no effect and 100 is complete control
In short: as §2

wheat [20] = assay: Test A preemergence; type: in vivo, Triticum aestivum; settings: for Wheat plant response rating: 500 g ai/ha
In short: as §1

Heteranthera limosa = assay: Test B flooded paddy test; type: in vivo; settings: Flood, 250 g ai/ha; 0 to 100 scale where 0 is no effect and 100 is complete control
In short: as §2

morningglory [21] = assay: Test A postemergence; type: in vivo, Ipomoea spp.
In short: as §1

barnyardgrass [22] = assay: Test C flooded paddy test; type: in vivo, Echinochloa crus-galli; settings: Flood, scale 0 to 100 (0 no effect, 100 complete control), 13 to 15 days
Description: as §3

[23] = 125 g ai/ha, 0 to 100 scale where 0 is no effect and 100 is complete control
[24] = 500 g ai/ha, 0 to 100 scale where 0 is no effect and 100 is complete control
[25] = 0 to 100 scale where 0 is no effect and 100 is complete control
[26] = 500 g ai/ha, 0 to 100 scale, 0 no effect, 100 complete control
[27] = 0 to 100 scale, 0 no effect, 100 complete control, approx. 10 days

FC(F)c1cccc(Oc2ncc(Cl)cn2)c1-n1cc(I)cn1 [Compound 184]
Barnyardgrass plant response rating (barnyardgrass [1]; [23]): 60
Plant response rating, Barnyardgrass (barnyardgrass [1]; [24]): 90
Plant response rating, Barnyardgrass (barnyardgrass [2]): 0
Plant response rating, Ducksalad (ducksalad; 31 g ai/ha): 0
Plant response rating, Ducksalad (ducksalad; 62 g ai/ha): 30
Plant response rating, Ducksalad (ducksalad; 125 g ai/ha): 30
Plant response rating, Ducksalad (ducksalad; 250 g ai/ha): 75
Plant response rating, Sedge, Umbrella (sedge, umbrella [3]): 95
Foxtail, Giant plant response rating (giant foxtail [4]; [23]): 70
Plant response rating, Foxtail, Giant (giant foxtail [4]; [24]): 80
Plant response rating, Sedge, Umbrella (sedge, umbrella [5]; 31 g ai/ha): 0
Plant response rating, Sedge, Umbrella (sedge, umbrella [5]; 62 g ai/ha): 0
Plant response rating, Sedge, Umbrella (sedge, umbrella [5]; 125 g ai/ha): 50
Plant response rating, Sedge, Umbrella (sedge, umbrella [5]; 250 g ai/ha): 75
Pigweed plant response rating (0 to 100 scale) (pigweed [6]; 125 g ai/ha): 100
Pigweed plant response rating (pigweed [6]; [25]): 100
Corn plant response rating (corn [7]; [23]): 20
Plant response rating, Corn (corn [7]; [24]): 70
Corn plant response rating (0 to 100 scale) (corn [8]; 125 g ai/ha): 20
Corn plant response rating (corn [8]; [25]): 20
Velvetleaf plant response rating (0 to 100 scale) (velvetleaf [9]; 125 g ai/ha): 20
Velvetleaf plant response rating (velvetleaf [9]; [25]): 60
Barnyardgrass plant response rating (0 to 100 scale, 0 is no effect, 100 is complete control) (barnyardgrass [10]; 125 g ai/ha): 30
Barnyardgrass plant response rating (barnyardgrass [10]; [25]): 100
Pigweed plant response rating (pigweed [11]; [23]): 100
Plant response rating, Pigweed (pigweed [11]; [24]): 100
Wheat plant response rating (wheat [12]; [23]): 30
Plant response rating, Wheat (wheat [12]; [24]): 90
Velvetleaf plant response rating (velvetleaf [13]; [23]): 80
Plant response rating, Velvetleaf (velvetleaf [13]; [24]): 90
Morningglory plant response rating (0 to 100 scale) (morningglory [14]; 125 g ai/ha): 0
Morningglory plant response rating (morningglory [14]; [24]): 90
Foxtail, Giant plant response rating (0 to 100 scale) (giant foxtail [15]; 125 g ai/ha): 100
Foxtail, Giant plant response rating (giant foxtail [15]; [25]): 100
Plant response rating, Rice (rice [16]; 31 g ai/ha): 0
Plant response rating, Rice (rice [16]; 62 g ai/ha): 0
Plant response rating, Rice (rice [16]; 125 g ai/ha): 0
Plant response rating, Rice (rice [16]; 250 g ai/ha): 0
Crabgrass, Large plant response rating (large (Lg) crabgrass [17]; [23]): 70
Plant response rating, Crabgrass, Large (large (Lg) crabgrass [17]; [24]): 80
Crabgrass, Large plant response rating (0 to 100 scale) (large (Lg) crabgrass [18]; 125 g ai/ha): 100
Crabgrass, Large plant response rating (large (Lg) crabgrass [18]; [25]): 100
Plant response rating, Rice (rice [19]): 10
Wheat plant response rating (0 to 100 scale) (wheat [20]; 125 g ai/ha): 0
Wheat plant response rating (wheat [20]; [25]): 30
Plant response rating, Ducksalad (Heteranthera limosa): 100
Morningglory plant response rating (morningglory [21]; [23]): 60
Plant response rating, Morningglory (morningglory [21]; [24]): 90
Plant response rating, Barnyardgrass (barnyardgrass [22]; 31 g ai/ha): 0
Plant response rating, Barnyardgrass (barnyardgrass [22]; 62 g ai/ha): 0
Plant response rating, Barnyardgrass (barnyardgrass [22]; 125 g ai/ha): 0
Plant response rating, Barnyardgrass (barnyardgrass [22]; 250 g ai/ha): 0

Clc1cnc(Oc2ccccc2-n2cnc(Br)c2)nc1 [Compound 34]
Plant response rating, Barnyardgrass (barnyardgrass [1]; [23]): 20
Plant response rating, Barnyardgrass (barnyardgrass [1]; [26]): 50
Plant response rating, Barnyardgrass (barnyardgrass [2]): 20
Plant response rating, Ducksalad (ducksalad; 31 g ai/ha): 0
Plant response rating, Ducksalad (ducksalad; 62 g ai/ha): 0
Plant response rating, Ducksalad (ducksalad; 125 g ai/ha): 20
Plant response rating, Ducksalad (ducksalad; 250 g ai/ha): 75
Plant response rating, Sedge, Umbrella (sedge, umbrella [3]): 90
Plant response rating, Foxtail, Giant (giant foxtail [4]; [23]): 30
Plant response rating, Foxtail, Giant (giant foxtail [4]; [26]): 70
Plant response rating, Sedge, Umbrella (sedge, umbrella [5]; 31 g ai/ha): 0
Plant response rating, Sedge, Umbrella (sedge, umbrella [5]; 62 g ai/ha): 0
Plant response rating, Sedge, Umbrella (sedge, umbrella [5]; 125 g ai/ha): 0
Plant response rating, Sedge, Umbrella (sedge, umbrella [5]; 250 g ai/ha): 70
Plant response rating, Pigweed (pigweed [6]; [23]): 80
Pigweed plant response rating (pigweed [6]; [27]): 100
Plant response rating, Corn (corn [7]; [23]): 10
Plant response rating, Corn (corn [7]; [26]): 20
Plant response rating, Corn (corn [8]; [23]): 0
Corn plant response rating (corn [8]; [27]): 0
Plant response rating, Velvetleaf (velvetleaf [9]; [23]): 60
Velvetleaf plant response rating (velvetleaf [9]; [27]): 80
Plant response rating, Barnyardgrass (barnyardgrass [10]; [23]): 0
Barnyardgrass plant response rating (barnyardgrass [10]; [27]): 50
Plant response rating, Pigweed (pigweed [11]; [23]): 90
Plant response rating, Pigweed (pigweed [11]; [26]): 100
Plant response rating, Wheat (wheat [12]; [23]): 0
Plant response rating, Wheat (wheat [12]; [26]): 20
Plant response rating, Velvetleaf (velvetleaf [13]; [23]): 80
Plant response rating, Velvetleaf (velvetleaf [13]; [26]): 100
Plant response rating, Foxtail, Giant (giant foxtail [15]; [23]): 30
Foxtail, Giant plant response rating (giant foxtail [15]; [27]): 100
Plant response rating, Rice (rice [16]; 31 g ai/ha): 0
Plant response rating, Rice (rice [16]; 62 g ai/ha): 0
Plant response rating, Rice (rice [16]; 125 g ai/ha): 0
Plant response rating, Rice (rice [16]; 250 g ai/ha): 0
Plant response rating, Crabgrass, Large (large (Lg) crabgrass [17]; [23]): 50
Plant response rating, Crabgrass, Large (large (Lg) crabgrass [17]; [26]): 60
Plant response rating, Crabgrass, Large (large (Lg) crabgrass [18]; [23]): 70
Crabgrass, Large plant response rating (large (Lg) crabgrass [18]; [27]): 90
Plant response rating, Rice (rice [19]): 30
Plant response rating, Wheat (wheat [20]; [23]): 0
Wheat plant response rating (wheat [20]; [27]): 0
Plant response rating, Ducksalad (Heteranthera limosa): 90
Plant response rating, Morningglory (morningglory [21]; [23]): 60
Plant response rating, Morningglory (morningglory [21]; [26]): 80
Plant response rating, Barnyardgrass (barnyardgrass [22]; 31 g ai/ha): 0
Plant response rating, Barnyardgrass (barnyardgrass [22]; 62 g ai/ha): 0
Plant response rating, Barnyardgrass (barnyardgrass [22]; 125 g ai/ha): 0
Plant response rating, Barnyardgrass (barnyardgrass [22]; 250 g ai/ha): 10
